Measured values from US10941143B2, “Imidazo [1,5-a]pyridine compounds and their use” (Alterity Therapeutics Limited, priority 2019, dated 2021).

System: human neuroblastoma line BE(2)-M17 (M17) cells
Assay: Measurement of Fe efflux from cells
Format: cell-based
Conditions: M17 cells pre-loaded with 57Fe, compound 20 μM for 2 h, percentage increase of Fe in media relative to media without compound, read-out: % Fe Efflux Range
Protocol: Method I: Measurement of Fe Efflux from Cells
Compounds of the current invention were assessed for their ability to efflux iron (Fe) from a cell using the following protocol.
The human neuroblastoma line BE(2)-M17 (M17) cell cultures were acquired from Sigma Aldrich (Catalogue #: 95011816). M17 Cells were maintained in Opti-MEM reduced serum media supplemented with 10% fetal bovine serum (Bovogen, SFBSF) and passaged twice weekly. Cells were cultured at 37° C. in the presence of 5% CO2. Culture supplies were sourced from Thermo Fisher unless otherwise stated.
A solution of ^57Fe cold isotope was prepared by dissolving ^57Fe metal (>95% enrichment, Trace Sciences International) in concentrated HCl to give a final concentration of 573 mM. From this master solution, a 10 mM working solution was prepared in sterile water. The working solution was used within two months of preparation.
M17 cells were loaded with iron initially by seeding into 48-well plates at a density of 0.15×10^6 cells per well in 0.5 mL media. After 48 h, old media was discarded. Fresh media was supplemented with 20 μM ^57Fe isotope, from the 10 mM ^57Fe working solution. Cells received 0.2 mL of this ^57Fe enriched media and were returned to the incubator for 20 h. The ability of experimental compounds to efflux iron was determined by the dissolution of compounds in DMSO and diluted in Hanks' Balanced Salt Solution (HBSS) for treatment of M17 cells. After ^57Fe incubation, cells were rinsed twice with HBSS and treated with 0.15 mL trial compound for 2 h at a concentration of 20 μM. All assays included a relevant vehicle (0.4%-0.8% DMSO) as well as a positive control (20 μM). Following the treatment period, 0.1 mL of media was collected from cells and the extracellular ^57Fe content was analysed via inductively coupled mass spectrometry (ICP-MS, Agilent 7700x series instrument).
To perform this protocol the following supplies were purchased from Sigma Aldrich: anhydrous dimethyl sulfoxide (DMSO, Catalogue #: 276855), Hanks' Balanced Salt Solution supplemented with 20 mM HEPES and 4.2 mM Sodium Bicarbonate (HBSS, pH: 7.4, Catalogue #: H1387).
After 2 h the Fe levels in the media were measured and the increase determined as a percentage increase relative to the cell media in the absence of the compound.

Row | Structure (SMILES) | activation at 20 µM
1 | COc1cccnc1-c1nc(-c2ccccc2O)n2ccccc12 [Compound 3, 2-(1-(3-Methoxypyridin-2-yl)imidazo[1,5-a]pyridin-3-yl)phenol] | 30 to 100%
2 | Oc1ccccc1-c1nc(-c2ncccc2O)c2ccccn12 [Compound 4, 2-(3-(2-Hydroxyphenyl)imidazo[1,5-a]pyridin-1-yl)pyridin-3-ol] | > 150%
3 | Oc1ccc(Br)cc1-c1nc(-c2ccccc2)n2ccccc12 [Compound 6] | < 30%
4 | Oc1ccccc1-c1nc(-c2cc(Cl)cc(Cl)c2O)n2ccccc12 [Compound 7] | < 30%
5 | Oc1ccccc1-c1nc(-c2cccc(F)c2O)n2ccccc12 [Compound 10, 2-Fluoro-6-(1-(2-hydroxyphenyl)imidazo[1,5-a]pyridin-3-yl)phenol] | 30 to 100%
6 | N#Cc1ccccc1-c1nc(-c2ccccc2O)c2ccccn12 [Compound 16, 2-(1-(2-Hydroxyphenyl)imidazo[1,5-a]pyridin-3-yl)benzonitrile] | < 30%
7 | Cc1ccc(O)c(-c2nc(-c3ccccc3O)c3ccccn23)c1 [Compound 17] | < 30%
8 | Oc1ccccc1-c1nc(-c2c(O)cccc2F)n2ccccc12 [Compound 18, 3-Fluoro-2-(1-(2-hydroxyphenyl)imidazo[1,5-a]pyridin-3-yl)phenol] | 30 to 100%
9 | COC(=O)c1ccccc1-c1nc(-c2ccccc2O)c2ccccn12 [Compound 20] | < 30%
10 | Oc1ccccc1-c1nc(-c2cc(Cl)cc(Cl)c2)n2ccccc12 [Compound 21] | < 30%
11 | COC(=O)c1ccc(O)c(-c2nc(-c3ccccc3O)c3ccccn23)c1 [Compound 22, Methyl 4-hydroxy-3-(1-(2-hydroxyphenyl)imidazo[1,5-a]pyridin-3-yl)benzoate] | 30 to 100%
12 | Oc1ccccc1-c1nc(-c2cc(F)cc(F)c2O)n2ccccc12 [Compound 23] | < 30%
13 | Oc1ccccc1-c1nc(-c2c(Cl)cccc2Cl)n2ccccc12 [Compound 24] | < 30%
14 | COC(=O)c1ccc(-c2nc(-c3ccccc3O)c3ccccn23)cc1 [Compound 25] | < 30%
15 | Oc1ccccc1-c1nc(-c2cccc(Cl)c2)n2ccccc12 [Compound 27] | < 30%
16 | Oc1ccccc1-c1nc(-c2ccc(Cl)cc2)n2ccccc12 [Compound 29] | < 30%
17 | Oc1c(F)cccc1-c1nc(-c2cccc(Br)c2O)c2ccccn12 [Compound 31] | < 30%
18 | Oc1c(Cl)cccc1-c1nc(-c2cccc(Br)c2O)c2ccccn12 [Compound 32] | 30 to 100%
19 | Oc1c(F)cc(F)cc1-c1nc(-c2cccc(Br)c2O)c2ccccn12 [Compound 33] | < 30%
20 | Oc1cccc(F)c1-c1nc(-c2cccc(Br)c2O)c2ccccn12 [Compound 34] | 30 to 100%
21 | Oc1cccc(Cl)c1-c1nc(-c2cccc(Br)c2O)c2ccccn12 [Compound 35] | < 30%
22 | Oc1ccccc1-c1nc(-c2cccc(F)c2O)c2ccccn12 [Compound 37] | < 30%
23 | Oc1cccc(F)c1-c1nc(-c2cccc(F)c2O)c2ccccn12 [Compound 38] | 30 to 100%
24 | Oc1cccc(Cl)c1-c1nc(-c2cccc(F)c2O)c2ccccn12 [Compound 39] | 30 to 100%
25 | Oc1c(F)cccc1-c1nc(-c2cccc(F)c2O)n2ccccc12 [Compound 40] | 30 to 100%
26 | Oc1c(F)cccc1-c1nc(-c2cccc(Cl)c2O)n2ccccc12 [Compound 41, 2-Chloro-6-(1-(3-fluoro-2-hydroxyphenyl)imidazo[1,5-a]pyridin-3-yl)phenol] | 30 to 100%

Row | Structure (SMILES) | activation at 20 µM
27 | Oc1ccc(Cl)cc1-c1nc(-c2cccc(F)c2O)c2ccccn12 [Compound 42] | 30 to 100%
28 | Oc1cc(F)c(Br)cc1-c1nc(-c2cccc(F)c2O)n2ccccc12 [Compound 44] | 30 to 100%
29 | Oc1cc(F)c(Br)cc1-c1nc(-c2c(O)cccc2Cl)n2ccccc12 [Compound 46] | < 30%
30 | Oc1cc(F)ccc1-c1nc(-c2c(O)cccc2F)n2ccccc12 [Compound 49] | < 30%
31 | Oc1cc(F)ccc1-c1nc(-c2cccc(F)c2O)n2ccccc12 [Compound 50] | 30 to 100%
32 | Oc1cc(F)ccc1-c1nc(-c2cc(F)ccc2O)n2ccccc12 [Compound 51] | < 30%
33 | COc1cccnc1-c1nc(-c2c(O)cccc2F)n2ccccc12 [Compound 52] | < 30%
34 | COc1cccnc1-c1nc(-c2cc(F)ccc2O)n2ccccc12 [Compound 56, 4-Fluoro-2-(1-(3-methoxypyridin-2-yl)imidazo[1,5-a]pyridin-3-yl)phenol] | 30 to 100%
35 | COc1cccnc1-c1nc(-c2cc(Cl)cc(Cl)c2O)n2ccccc12 [Compound 59] | < 30%
36 | COc1cccnc1-c1nc(-c2cc(C)ccc2O)n2ccccc12 [Compound 61] | 30 to 100%
37 | Oc1cc(F)ccc1-c1nc(-c2cccc(Cl)c2O)n2ccccc12 [Compound 63] | < 30%
38 | O=[N+]([O-])c1ccccc1-c1nc(-c2ccccc2O)c2ccccn12 [Compound 77] | < 30%
39 | Oc1cccnc1-c1nc(-c2c(O)cccc2F)n2ccccc12 [Compound 79] | 100 to 150%
40 | Oc1cccnc1-c1nc(-c2c(O)cccc2Cl)n2ccccc12 [Compound 80] | 30 to 100%
41 | Oc1cccnc1-c1nc(-c2cccc(F)c2O)n2ccccc12 [Compound 81, 2-(3-(3-Fluoro-2-hydroxyphenyl)imidazo[1,5-a]pyridin-1-yl)pyridin-3-ol] | > 150%
42 | Oc1cccnc1-c1nc(-c2cccc(Cl)c2O)n2ccccc12 [Compound 82] | 30 to 100%
43 | Oc1ccc(F)cc1-c1nc(-c2ncccc2O)c2ccccn12 [Compound 83] | 100 to 150%
44 | Oc1cccnc1-c1nc(-c2cc(F)cc(F)c2O)n2ccccc12 [Compound 84, 2-(3-(3,5-Difluoro-2-hydroxyphenyl)imidazo[1,5-a]pyridin-1-yl)pyridin-3-ol] | > 150%
45 | Oc1cccnc1-c1nc(-c2cc(Cl)cc(Cl)c2O)n2ccccc12 [Compound 85] | 30 to 100%
46 | Cc1ccc(O)c(-c2nc(-c3c(O)cccc3F)n3ccccc23)c1 [Compound 87] | < 30%
47 | Oc1ccc(Cl)cc1-c1nc(-c2ncccc2O)c2ccccn12 [Compound 92] | 100 to 150%
48 | Oc1cc(Cl)ccc1-c1nc(-c2ncccc2O)c2ccccn12 [Compound 93] | 30 to 100%
49 | Cc1ccc(O)c(-c2nc(-c3ncccc3O)c3ccccn23)c1 [Compound 94] | 30 to 100%
50 | Oc1ccccc1-c1nc(-c2ncccc2O)n2ccccc12 [Compound 95, 2-(1-(2-Hydroxyphenyl)imidazo[1,5-a]pyridin-3-yl)pyridin-3-ol] | 30 to 100%
51 | Oc1cc(C(F)(F)F)ccc1-c1nc(-c2cccc(F)c2O)n2ccccc12 [Compound 98, 2-(3-(3-Fluoro-2-hydroxyphenyl)imidazo[1,5-a]pyridin-1-yl)-5-(trifluoromethyl)phenol] | < 30%
52 | COc1ccccc1-c1nc(-c2ccc(Cl)cc2O)n2ccc(C)cc12 [Compound 100, 5-Chloro-2-(1-(2-methoxyphenyl)-7-methylimidazo[1,5-a]pyridin-3-yl)phenol] | < 30%
